Experimental data as given in ChEMBL document CHEMBL1165932, “Inhibition of Mycobacterium tuberculosis tyrosine phosphatase PtpA by synthetic chalcones: kinetics, molecular modeling, toxicity and effect on growth” (Bioorg Med Chem, 2010).
The source made the active and inactive calls. The rule behind the calls is not given here.

Tests used:
[1] = tested on: THP-1; assay: Cytotoxicity against human THP1 cells at 40 uM after 24 hrs by flow cytometry; format: cell-based; conditions: thp-1, 24 h
[2] = target: T1, Low molecular weight protein-tyrosine phosphatase A (Mycobacterium tuberculosis, UniProt P9WIA1); assay: Inhibition of Mycobacterium tuberculosis PTPA-mediated pNPP hydrolysis
T1 sequence (P9WIA1 whole entry): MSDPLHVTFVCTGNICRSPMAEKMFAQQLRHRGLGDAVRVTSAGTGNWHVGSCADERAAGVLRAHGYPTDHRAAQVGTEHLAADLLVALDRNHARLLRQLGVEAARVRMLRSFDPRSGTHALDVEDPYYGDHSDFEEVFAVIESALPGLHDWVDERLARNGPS

[3] = target: T2, Low molecular weight protein-tyrosine phosphatase A (Mycobacterium tuberculosis) (UniProt P9WIA1); assay: Competitive inhibition of Mycobacterium tuberculosis PTPA by Lineweaver-Burke plot analysis
T2 sequence (whole entry): T1 sequence (P9WIA1 whole entry)

[4] = target: T3, Tyrosine-protein phosphatase non-receptor type 1 (Homo sapiens, UniProt P18031); assay: Inhibition of human PTP1B
T3 sequence (P18031 whole entry): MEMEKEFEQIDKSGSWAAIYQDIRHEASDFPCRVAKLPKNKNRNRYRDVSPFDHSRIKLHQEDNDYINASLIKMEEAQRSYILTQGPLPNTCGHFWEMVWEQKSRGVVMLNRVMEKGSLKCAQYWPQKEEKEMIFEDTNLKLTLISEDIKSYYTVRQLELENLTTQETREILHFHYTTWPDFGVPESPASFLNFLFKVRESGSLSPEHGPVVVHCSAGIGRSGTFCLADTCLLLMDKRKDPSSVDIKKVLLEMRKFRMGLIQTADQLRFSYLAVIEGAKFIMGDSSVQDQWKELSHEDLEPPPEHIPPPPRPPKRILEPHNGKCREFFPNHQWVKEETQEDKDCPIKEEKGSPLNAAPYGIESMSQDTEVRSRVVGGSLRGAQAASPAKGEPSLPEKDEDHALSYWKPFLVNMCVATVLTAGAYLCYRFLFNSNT

[5] = target: T4, Phosphotyrosine-protein phosphatase PTPB (Mycobacterium tuberculosis) (UniProt P96830); assay: Inhibition of Mycobacterium tuberculosis PTPB at 100 uM after 20 mins by ELISA
T4 sequence (whole entry): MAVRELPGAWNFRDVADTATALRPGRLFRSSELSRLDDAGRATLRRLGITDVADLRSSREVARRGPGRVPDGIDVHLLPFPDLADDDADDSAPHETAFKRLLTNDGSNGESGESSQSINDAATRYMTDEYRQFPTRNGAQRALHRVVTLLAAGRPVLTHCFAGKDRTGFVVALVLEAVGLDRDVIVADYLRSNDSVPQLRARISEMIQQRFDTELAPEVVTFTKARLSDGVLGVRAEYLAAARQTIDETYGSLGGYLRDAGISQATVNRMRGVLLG

[6] = tested on: Mycobacterium tuberculosis; assay: Antibacterial activity against Mycobacterium tuberculosis H37Rv infected in human THP1 cells assessed as reduction of bacterial burden at 40 uM after 96 hrs; format: functional; conditions: THP-1, 96 h
[7] = tested on: THP-1; assay: Cytotoxicity against human THP1 cells at 4 uM after 24 hrs by flow cytometry; format: cell-based; conditions: thp-1, 24 h
[8] = tested on: Mycobacterium tuberculosis; assay: Antibacterial activity against Mycobacterium tuberculosis H37Rv infected in human THP1 cells assessed as reduction of bacterial burden at 20 uM after 48 hrs; format: functional; conditions: for inhibition at 20 µM: THP-1, 48 h; for inhibition: THP-1
[9] = target: T5, Phosphotyrosine-protein phosphatase PTPB (Mycobacterium tuberculosis, UniProt P96830); assay: Inhibition of N-terminal histidine-tagged Mycobacterium tuberculosis PTPB expressed in Escherichia coli BL21 (DE3) after 45 mins by fluorescence assay
T5 sequence (P96830 whole entry): T4 sequence (whole entry)

[10] = target: T1, Low molecular weight protein-tyrosine phosphatase A; assay: Inhibition of Mycobacterium tuberculosis PTPA after 20 mins by ELISA
[11] = tested on: Mycobacterium tuberculosis; assay: Antibacterial activity against Mycobacterium tuberculosis H37Rv infected in human THP1 cells assessed as reduction of bacterial burden at 10 uM after 24 hrs; format: functional, organism-based; conditions: THP-1
[12] = target: T2, Low molecular weight protein-tyrosine phosphatase A (Mycobacterium tuberculosis); assay: Inhibition of Mycobacterium tuberculosis PTPA-mediated dephosphorylation of VPS33B assessed as increase in phosphorylated VPS33B level after 15 mins by scintillation counting

Row | SMILES | Activity [1] | Ki [2] | inhibition [3] | IC50 [4] | inhibition [5] | inhibition at 40 µM [6] | Activity [7] | inhibition at 20 µM [8] | IC50 [9] | IC50 [10] | inhibition [8] | inhibition [11] | inhibition [12]
1 | COc1ccc(OC)c(C(=O)/C=C/c2ccc3ccccc3c2)c1 | 83.1% | 5.4 µM | Active | 145 µM | inactive | 90% | 1.3% | 50% |  |  |  |  | 
2 | NC1=S2C=CC(S(N)(=O)=O)=C2C(=O)C1=O (configuration not stated) |  |  |  |  |  |  |  |  | 0.44 µM |  |  |  | 
3 | COc1cc(C(=O)/C=C/c2ccc3ccccc3c2)ccc1O | 10.5% | 17.9 µM | Active | 123 µM | inactive | 80% | 0.9% |  |  | 53.7 µM | inactive |  | 
4 | COc1ccc(OC)c(C(=O)/C=C/c2cccc3ccccc23)c1 | 77.8% | 21.3 µM | Active | 214 µM | inactive | 90% | 0.9% | 77% |  |  |  | inactive | 
5 | COc1ccc(C(=O)/C=C/c2ccc3ccccc3c2)cc1OC | 1.6% | 4.9 µM | Active | 1260 µM | inactive | 40% |  |  |  |  | inactive |  | 
6 | O=C(/C=C/c1cccc2ccccc12)c1ccccc1O | 2% | 9.1 µM | Active | 158 µM | inactive | 77% |  | 50% |  |  |  |  | Dose-dependent effect
